Patent publication US8088734B2, “Oral delivery of peptides” (Unigene Laboratories Inc., priority 2003, dated 2012)

How the values were obtained:
[1] = Oral bioavailability of sCTgly vs sCT-NH2, enteric coated capsules, dog model; format: in vivo, Beagle dogs; details: for Cmax: male, Beagle, read-out: Mean Cmax ± SEM; for Cmax / Mean AUC ± SERM: oral enteric coated capsule, dog plasma, adjusted to a 1 mg dose
Description: A study was carried out in a dog model to compare the pharmacokinetic parameters of orally delivered glycine-extended sCT (sCTgly) with those of amidated sCT (sCT-NH2).
Eight adult male Beagle dogs, weighing between 12 and 16 kg, were used in this study. Dogs were fasted overnight prior to administration of the test peptide, but were allowed free access to water. A wash-out period of at least 1 week occurred between experiments for each dog. Each dog received an orally administered, enteric coated gelatin capsule that contained 1.11 mg of sCTgly in week 1 and 1.11 mg of sCT-NH2 in week 2. Prior to capsule administration, a 20-gauge intravenous (IV) catheter was inserted into a brachial vein for the collection of blood samples. Two pre-dose samples of 3 ml each were collected from the brachial vein.
After administration of the capsule, 3 ml blood samples were collected from the brachial vein at 15 minute intervals up to 240 minutes post-administration. Blood samples were collected into new heparinized Monovette sampling syringes. Samples were placed on ice before being centrifuged for 10 minutes at approximately 2750 rpm at 2-8° C. The plasma supernatant was transferred to color-coded microcentrifuge tubes labeled with the time point and stored frozen at −20° C. prior to analysis to determine the concentration of sCTgly or sCT-NH2.
The concentration of sCTgly in plasma was determined by radioimmunoassay with an RIA kit from Peninsula Laboratories. sCT-NH2 concentration in plasma was determined by a sandwich ELISA immunoassay using a kit from Diagnostic Systems Laboratories Inc. From the pharmacokinetic profile of sCTgly or sCT-NH2 in plasma, the parameters of Cmax (peak of plasma concentration in pg/ml) and AUC (Area under the Curve) were determined. All measured values were normalized for a 1 mg peptide dose for either of the two peptides.

[2] = Blood levels of salmon calcitonin after direct injection into duodenum, ileum or colon of rats; format: in vivo; details: active components injected directly into duodenum
Excerpt: The acid is believed to lower the local intestinal pH (where the active agent has been released) to levels below the optimal range for many intestinal proteases and other intestinal enzymes. This decrease in pH reduces the proteolytic activity of the intestinal proteases, thus affording protection to the peptide and the membrane translocator from potential degradation. The activity of these proteases is diminished by the temporarily acidic environment provided by the invention. It is preferred that sufficient acid be provided that local intestinal pH is lowered temporarily to 5.5 or below, preferably 4.7 or below and more preferably 3.5 or below. The sodium bicarbonate test described below (in the section captioned “the pH-Lowering Agent”) is indicative of the required acid amount.

[3] = cited from earlier work
in vivo = details: rat; for AUC / Cmax / level at 0.25 h / level at 0.5 h / level at 1 h / level at 2 h: female; for level at 0.25 h / level at 0.5 h / level at 1 h / level at 2 h: 2.5 mg
Excerpt: The effect of C-terminal amidation on the absorption of luteinizing hormone-releasing hormone (LHRH-NH2) from the duodenum of anesthetized rats was examined. In this study the absorption characteristics of LHRH-NH2, a naturally occurring C-terminal amidated decapeptide were compared with that of LHRH-COOH, a decapeptide with the same amino acid sequence as that of LHRH-NH2 except that the C-terminal amino acid of LHRH-COOH is gly-COOH instead of gly-NH2. Twelve female rats were anesthetized and implanted with a cannula in the carotid artery for taking blood samples at various times. Six rats were injected in the duodenum through a 27 gauge needle with 0.5 mL of LHRH-NH2 (5 mg/mL) in 0.5M citric acid and lauroylcarnitine (10 mg/mL) and six rats with injected in the duodenum with 0.5 mL LHRH-COOH) (5 mg/mL) in the same formulation. Samples of blood were taken prior to the administration of formulated LHRH-NH2 or LHRH-COOH and at 5, 15, 30, 60, and 120 minutes after peptide administration. The resulting plasma samples were analyzed for LHRH-NH2 or LHRH-COOH by high performance liquid chromatography equipped with a fluorescence detector to measure the concentration of peptide in plasma.

Structure (SMILES)	Cmax [1] [ng/mL]	Mean AUC ± SERM [1]	mean AUC relative to sCTgly ([1]; oral, dog) [times]	mean Cmax relative to sCTgly ([1]; oral, dog) [times]	Tmax for blood levels [2] [min]	blood levels after injection at conventional dosages ([3]; man)	duration of beneficial effect on osteoclasts ([3]; man)	peak levels at which proven effective against osteoporosis ([3]; nasally administered, 200 International units) [picograms per milliliter]	peak levels at which some patients report gastrointestinal distress ([3]; patients) [picograms per milliliter]	half-life ([3]; subcutaneous administration in man) [min]	peak serum concentration ([3]; subcutaneous administration, 100 International units)	AUC (in vivo) [ng·h/mL]	Cmax (in vivo) [ng/mL]	level at 0.25 h (in vivo) [ng/mL]	level at 0.5 h (in vivo) [ng/mL]	level at 1 h (in vivo) [ng/mL]	level at 2 h (in vivo) [ng/mL]	AUC relative to free acid form of LHRH (in vivo) [times]	amount detected in plasma relative to LHRH-COOH (in vivo) [times]	time at which maximum concentration (Cmax) was detected in plasma (in vivo)
CC(C)C[C@H](NC(=O)[C@H](CCCCN)NC(=O)CNC(=O)[C@H](CC(C)C)NC(=O)[C@@H](NC(=O)[C@@H]1CSSC[C@H](N)C(=O)N[C@@H](CO)C(=O)N[C@@H](CC(N)=O)C(=O)N[C@@H](CC(C)C)C(=O)N[C@@H](CO)C(=O)N[C@@H]([C@@H](C)O)C(=O)N1)C(C)C)C(=O)N[C@@H](CO)C(=O)N[C@@H](CCC(N)=O)C(=O)N[C@@H](CCC(=O)O)C(=O)N[C@@H](CC(C)C)C(=O)N[C@@H](Cc1c[nH]cn1)C(=O)N[C@@H](CCCCN)C(=O)N[C@@H](CC(C)C)C(=O)N[C@@H](CCC(N)=O)C(=O)N[C@H](C(=O)N[C@@H](Cc1ccc(O)cc1)C(=O)N1CCC[C@H]1C(=O)N[C@@H](CCCNC(=N)N)C(=O)N[C@H](C(=O)N[C@@H](CC(N)=O)C(=O)N[C@H](C(=O)NCC(=O)N[C@@H](CO)C(=O)NCC(=O)N[C@H](C(=O)N1CCC[C@H]1C(N)=O)[C@@H](C)O)[C@@H](C)O)[C@@H](C)O)[C@@H](C)O [sCT-NH2]	3.2	148,000 ± 18,200 pg · min/ml	5.9	6.6	5 to 15	no detectable blood levels more than two hours after injection	more than 24 hours	≥ 10	≥ 200	20 to 40	about 250 picograms per milliliter	–	–	–	–	–	–	–	–	–
CC(C)C[C@H](NC(=O)[C@H](CCCCN)NC(=O)CNC(=O)[C@H](CC(C)C)NC(=O)[C@@H](NC(=O)[C@@H]1CSSC[C@H](N)C(=O)N[C@@H](CO)C(=O)N[C@@H](CC(N)=O)C(=O)N[C@@H](CC(C)C)C(=O)N[C@@H](CO)C(=O)N[C@@H]([C@@H](C)O)C(=O)N1)C(C)C)C(=O)N[C@@H](CO)C(=O)N[C@@H](CCC(N)=O)C(=O)N[C@@H](CCC(=O)O)C(=O)N[C@@H](CC(C)C)C(=O)N[C@@H](Cc1c[nH]cn1)C(=O)N[C@@H](CCCCN)C(=O)N[C@@H](CC(C)C)C(=O)N[C@@H](CCC(N)=O)C(=O)N[C@H](C(=O)N[C@@H](Cc1ccc(O)cc1)C(=O)N1CCC[C@H]1C(=O)N[C@@H](CCCNC(=N)N)C(=O)N[C@H](C(=O)N[C@@H](CC(N)=O)C(=O)N[C@H](C(=O)NCC(=O)N[C@@H](CO)C(=O)NCC(=O)N[C@H](C(=O)N1CCC[C@H]1C(=O)NCC(=O)O)[C@@H](C)O)[C@@H](C)O)[C@@H](C)O)[C@@H](C)O [sCTgly]	0.485 ± 0.106	25,125 ± 5,525 pg · min/ml	–	–	–	–	–	–	–	–	–	–	–	–	–	–	–	–	–	–
CC(C)C[C@H](NC(=O)CNC(=O)[C@H](Cc1ccc(O)cc1)NC(=O)[C@H](CO)NC(=O)[C@H](Cc1c[nH]c2ccccc12)NC(=O)[C@H](Cc1cnc[nH]1)NC(=O)[C@@H]1CCC(=O)N1)C(=O)N[C@@H](CCCNC(=N)N)C(=O)N1CCC[C@H]1C(=O)NCC(N)=O [LHRH-NH2]	–	–	–	–	–	–	–	–	–	–	–	1820	3280 ± 893	3280 ± 893	2900 ± 612	1280 ± 282	382 ± 103	6	5	five
CC(C)C[C@H](NC(=O)CNC(=O)[C@H](Cc1ccc(O)cc1)NC(=O)[C@H](CO)NC(=O)[C@H](Cc1c[nH]c2ccccc12)NC(=O)[C@H](Cc1cnc[nH]1)NC(=O)[C@@H]1CCC(=O)N1)C(=O)N[C@@H](CCCN=C(N)N)C(=O)N1CCC[C@H]1C(=O)NCC(=O)O [LHRH-COOH]	–	–	–	–	–	–	–	–	–	–	–	296	654 ± 103	654 ± 103	391 ± 81	163 ± 68	56 ± 19	–	–	five
